# Assay results taken from PMC8634379, “From the Design to the In Vivo Evaluation of Benzohomoadamantane-Derived Soluble Epoxide Hydrolase Inhibitors for the Treatment of Acute Pancreatitis” (Journal of Medicinal Chemistry, 2021).
# Assays:
# human sEH (hsEH) = biological target: T1, human sEH (hsEH) (Homo sapiens, UniProt P34913); experiment: sEH inhibition, fluorescent-based assay (CMNPC substrate); format: biochemical; conditions: for fold difference (decrease) in hsEH potency: 17 vs 16 (oxygen for methylene), 18 vs 17 (hydrogen for methyl)
# T1 sequence (P34913 1-555): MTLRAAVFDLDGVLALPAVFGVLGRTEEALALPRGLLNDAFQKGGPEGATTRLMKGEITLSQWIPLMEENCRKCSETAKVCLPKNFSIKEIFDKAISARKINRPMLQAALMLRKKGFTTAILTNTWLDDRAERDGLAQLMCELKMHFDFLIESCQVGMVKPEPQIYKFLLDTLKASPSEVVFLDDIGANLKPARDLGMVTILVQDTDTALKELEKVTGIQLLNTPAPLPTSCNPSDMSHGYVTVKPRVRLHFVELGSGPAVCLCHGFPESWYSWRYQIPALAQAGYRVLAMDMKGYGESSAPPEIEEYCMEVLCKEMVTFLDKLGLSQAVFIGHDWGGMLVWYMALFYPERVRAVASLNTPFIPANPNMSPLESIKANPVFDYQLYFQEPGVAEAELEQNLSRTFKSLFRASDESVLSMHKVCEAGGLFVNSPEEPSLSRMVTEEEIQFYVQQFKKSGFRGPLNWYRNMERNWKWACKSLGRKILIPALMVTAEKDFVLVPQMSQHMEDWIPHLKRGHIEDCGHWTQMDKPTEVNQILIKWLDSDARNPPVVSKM
# Protocol: The IC50 values reported herein were determined using a fluorescent-based assay (CMNPC as substrate).[16] The fluorescent assay was used with purified recombinant human, mouse, or rat sEH proteins. The enzymes were incubated at 30 °C with the inhibitors ([I]final = 0.4–100,000 nM) for 5 min in 100 mM sodium phosphate buffer (200 μL, pH 7.4) containing 0.1 mg/mL of BSA and 1% of DMSO. The substrate (CMNPC) was then added ([S]final = 5 μM). […] Results were obtained by regression analysis from a linear region of the curve.
# Microsomal stability [1] = format: in vitro ADME, human; conditions: after 60 min incubation, NADP, 37 °C
# Protocol: (§1) The human, rat, and mice recombinant microsomes employed were purchased from Tebu–Xenotech. […] Samples (75 μL) were taken from each well at 0, 10, 20, 40, and 60 min and transferred to a plate containing 4 °C 75 μL of acetonitrile and 30 μL of 0.5% formic acid in water were added for improving the chromatographic conditions. The plate was centrifuged ([…], 30 min) and supernatants were taken and analyzed by an ultraperformance liquid chromatograph–tandem mass spectrometer (Xevo-TQD, Waters) by employing a BEH C18 column and an isocratic gradient of 0.1% formic acid in water: 0.1% formic acid acetonitrile (60:40). The metabolic stability of the compounds was calculated from the logarithm of the remaining compounds at each of the time points studied.
# Microsomal stability [2] = format: in vitro ADME, mice; conditions: after 60 min incubation, NADP, 37 °C
# Protocol: as §1
# Microsomal stability [3] = conditions: after 60 min incubation, NADP, 37 °C
# Protocol: as §1
# [4] = purified recombinant enzyme, average of three replicates
SMILES,IC50 (human sEH (hsEH); [4]),IC50 (human sEH (hsEH); value given in the text),"microsomal stability, percentage of remaining compound (human) (Microsomal stability [1])","microsomal stability, percentage of remaining compound (mice) (Microsomal stability [2])","microsomal stability, percentage of remaining compound (rat) (Microsomal stability [3])",fold difference (decrease) in hsEH potency (human sEH (hsEH))
"CC12CC3CC(NC(=S)Nc4ccc(C(F)(F)F)cc4)(CC(C1)c1ccccc13)C2 [Compound 9, 1-(9-Methyl-5,6,8,9,10,11-hexahydro-7H-5,9:7,11-dimethanobenzo[9]annulen-7-yl)-3-(4-(trifluoromethyl)phenyl)thiourea]",138 nM,–,–,–,–,–
"Cc1ccc(OC(=O)NC23CC4CC(C)(CC(C2)c2ccccc24)C3)cc1 [Compound 11, p-Tolyl (9-Methyl-5,6,8,9,10,11-hexahydro-7H-5,9:7,11-dimethanobenzo[9]annulen-7-yl)carbamate]",> 10000 nM,12700 nM,–,–,–,–
"CC12CC3CC(NC(=O)Nc4ccc(F)c(F)c4F)(CC(C1)c1ccccc13)C2 [Compound 13, 1-(9-Methyl-5,6,8,9,10,11-hexahydro-7H-5,9:7,11-dimethanobenzo[9]annulen-7-yl)-3-(2,3,4-trifluorophenyl)urea]",1 nM,–,7%,0.2%,–,–
"CC12CC3CC(NC(=O)Nc4ccc(F)c(F)c4F)(CC(C1)c1ccccc13)O2 [Compound 14, 1-(5-Methyl-1,5,6,7-hexahydro-1,5:3,7-dimethanobenzo[e]oxonin-3(2H)-yl)-3-(2,3,4-trifluorophenyl)urea]",20 nM,–,77%,23%,33%,–
"CC(=O)N1CCC(NC(=O)NC23CC4CC(C)(CC(C2)c2ccccc24)C3)CC1 [Compound 16, 1-(1-Acetylpiperidin-4-yl)-3-(9-methyl-5,6,8,9,10,11-hexahydro-7H-5,9:7,11-dimethanobenzo[9]annulen-7-yl)urea]",–,–,–,–,less than 1%,–
"CC(=O)N1CCC(NC(=O)NC23CC4CC(C)(CC(C2)c2ccccc24)O3)CC1 [Compound 17, 1-(1-Acetylpiperidin-4-yl)-3-(5-methyl-1,5,6,7-tetrahydro-1,5:3,7-dimethanobenzo[e]oxonin-3(2H)-yl)urea]",941 nM,–,–,–,–,300 fold
"CC(=O)N1CCC(NC(=O)NC23CC4CC(CC(C2)c2ccccc24)O3)CC1 [Compound 18, 1-(1-Acetylpiperidin-4-yl)-3-(1,5,6,7-tetrahydro-1,5:3,7-dimethanobenzo[e]oxonin-3(2H)-yl)urea]",> 10000 nM,–,–,–,–,> 10 fold
"CC12CC3CC(NC(=O)N[C@H]4CC[C@H](Oc5ccc(C(=O)O)cc5)CC4)(CC(C1)c1ccccc13)O2 [Compound 21, 4-[((1r,4r)-4-(3-(5-Methyl-1,5,6,7-tetrahydro-1,5:3,7-Dimethanobenzo[e]oxonin-3(2H)-yl)ureido)cyclohexyl)oxy]benzoic Acid]",28 nM,–,90%,83%,–,–
